In ChEMBL document CHEMBL3421590, “Pancreatic lipase inhibitory constituents from Morus alba leaves and optimization for extraction conditions” (Bioorg Med Chem Lett, 2015):

How the values were obtained:
[1] = target: T1, Pancreatic triacylglycerol lipase (Sus scrofa) (UniProt P00591); test: Inhibition of porcine pancreatic lipase using p-nitrophenylbutyrate as substrate assessed as formation of p-nitrophenol at 100 uM preincubated for 15 mins followed by substrate addition measured after 15 mins relative to control
T1 sequence (whole entry): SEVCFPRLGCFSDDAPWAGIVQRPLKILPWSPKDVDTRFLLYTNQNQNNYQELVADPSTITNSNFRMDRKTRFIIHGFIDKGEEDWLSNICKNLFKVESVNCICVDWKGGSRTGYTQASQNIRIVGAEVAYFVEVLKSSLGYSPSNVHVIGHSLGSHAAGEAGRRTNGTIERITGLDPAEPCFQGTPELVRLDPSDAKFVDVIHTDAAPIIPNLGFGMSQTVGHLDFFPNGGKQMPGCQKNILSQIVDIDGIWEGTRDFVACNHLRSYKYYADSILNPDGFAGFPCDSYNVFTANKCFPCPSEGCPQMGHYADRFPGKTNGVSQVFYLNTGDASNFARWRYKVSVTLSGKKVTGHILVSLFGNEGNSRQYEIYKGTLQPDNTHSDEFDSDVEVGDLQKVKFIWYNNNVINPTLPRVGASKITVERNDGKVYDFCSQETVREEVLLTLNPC

[2] = target: T2, Pancreatic triacylglycerol lipase (Sus scrofa, UniProt P00591); test: Inhibition of porcine pancreatic lipase using p-nitrophenylbutyrate as substrate assessed as formation of p-nitrophenol preincubated for 15 mins followed by substrate addition measured after 15 mins
T2 sequence (P00591 whole entry): T1 sequence (whole entry)

O=c1cc(-c2ccc(O)cc2O)oc2cc(O)cc(O)c12 [NORARTOCARPETIN]
inhibition [1]: 45.3% | IC50 [2]: > 70 µM

O=c1c(O)c(-c2ccc(O)c(O)c2)oc2cc(O)cc(O)c12
inhibition [1]: 36.3%

Oc1cc(O)cc(-c2cc3cc(O)c(O)cc3o2)c1
inhibition [1]: 59.1% | IC50 [2]: 64.8 µM

O=c1c(O[C@@H]2O[C@H](CO)[C@@H](O)[C@H](O)[C@H]2O)c(-c2ccc(O)cc2)oc2cc(O)cc(O)c12 [ASTRAGALIN]
inhibition [1]: 10.8% | IC50 [2]: > 70 µM

CC(C)=CCc1cc2cc(-c3cc(O)cc(O)c3)oc2cc1O [MORACIN N]
inhibition [1]: 61.7% | IC50 [2]: 29.7 µM

CC1(C)C=Cc2cc3cc(-c4cc(O)cc(O)c4)oc3cc2O1
inhibition [1]: 67.9% | IC50 [2]: 29.2 µM

CC(C)=CCc1c(-c2ccc(O)cc2O)oc2c(CC=C(C)C)c(O)cc(O)c2c1=O [KUWANON C]
inhibition [1]: 72.5% | IC50 [2]: 18.6 µM

COc1ccc(-c2oc3cc(O)cc(O)c3c(=O)c2OC2O[C@H](CO)[C@@H](O)[C@H](O)[C@H]2O)cc1 (some centres undefined)
inhibition [1]: 12.1% | IC50 [2]: > 70 µM

O=C1CC(c2ccc(O)cc2O)Oc2cc(O)cc(O)c21 (centres undefined) [STEPPOGENIN]
inhibition [1]: 4.4% | IC50 [2]: > 70 µM

CC(C)=CCc1c(O)cc(-c2cc3ccc(O)cc3o2)cc1O [MORACIN C]
inhibition [1]: 64.8% | IC50 [2]: 32 µM

O=c1c(O)c(-c2ccc(O)cc2)oc2cc(O)cc(O)c12 [KAEMPFEROL]
inhibition [1]: 50.3% | IC50 [2]: > 70 µM

COc1cc(-c2oc3cc(O)cc(O)c3c(=O)c2O)ccc1O [ISORHAMNETIN]
inhibition [1]: 32.4% | IC50 [2]: > 70 µM

CC(C)=CCc1c(O)ccc(C(=O)/C=C/c2ccc(O)cc2O)c1O [MORACHALCONE A]
inhibition [1]: 73% | IC50 [2]: 6.2 µM

O=c1c(O[C@@H]2O[C@H](CO)[C@@H](O)[C@H](O)[C@H]2O)c(-c2ccc(O)c(O)c2)oc2cc(O)cc(O)c12 [ISOQUERCETIN]
inhibition [1]: 12.6% | IC50 [2]: > 70 µM

Oc1cc(O)cc(-c2cc3ccc(O)c(O)c3o2)c1
inhibition [1]: 55.9% | IC50 [2]: 63 µM

Oc1cc(O)cc(/C=C/c2ccc(O)cc2O)c1 [OXYRESVERATROL]
inhibition [1]: 28.8% | IC50 [2]: > 70 µM

O=C1CC(c2ccc(O)cc2O)Oc2cc(O)ccc21 (centres undefined)
inhibition [1]: 69.6% | IC50 [2]: 56.4 µM

Oc1cc(O)cc(-c2cc3cc4ccoc4cc3o2)c1
inhibition [1]: 31.7% | IC50 [2]: > 70 µM

CC(C)=CCC/C(C)=C/Cc1c(O)cc(O)cc1-c1cc2ccc(O)cc2o1 [ALBAFURAN A]
inhibition [1]: 45.4% | IC50 [2]: > 70 µM

Oc1cc(O)cc(-c2cc3ccc(O)cc3o2)c1 [MORACIN M]
inhibition [1]: 21.5% | IC50 [2]: > 70 µM
